Here are results for five compounds from patent US20250099536A1, “PRISTINAMYCIN IA AND FLOPRISTIN COMBINATIONS IN TREATING OR PREVENTING BACTERIAL INFECTIONS” (AIMMAX THERAPEUTICS, INC., priority 2021, published 2025).

≈ marks a conversion by molar mass, not a printed value. Like-named read-outs stand apart in the source and are kept apart here. Positions of bridges follow the written chain, without caps; N, C: chain ends. Non-standard residues stand in square brackets, D forms with d. Residues, ends and D or L forms follow the SMILES beside them. *: point of attachment. NMePhe(4-NMe2) = CN[C@@H](Cc1ccc(N(C)C)cc1)C(=O)O; Pip(4-oxo) = O=C1CCN[C@H](C(=O)O)C1; Picolinoyl(3-OH) = O=C(c1ncccc1O)*; Phg = N[C@H](C(=O)O)c1ccccc1; dAbu = CC[C@@H](N)C(=O)O Where only a bound is given, the exact number is not on record here.

One test concerns Neisseria gonorrhoeae. Nature of the test: Broth microdilution MIC across streptogramin B:A ratios. It counts as cell-based. For orientation: Broth dilution looks for growth in wells or tubes with falling amounts of substance.
Another test relates to Mycoplasma genitalium. Nature of the test: MIC across streptogramin B:A ratios (CLSI mycoplasma method). To be noted: 10 strains and isolates. The class given is cell-based.
The next test has as its system Staphylococcus aureus. Kind of test: Broth microdilution MIC across streptogramin B:A ratios. It counts as cell-based.
For test [1], the system named is Streptococcus pneumoniae. Nature of the test: MBC assay. The class given is cell-based. To be noted: S. pneumoniae strains evaluated.
Test [2] deals with Streptococcus pneumoniae. Kind of test: Broth microdilution MIC across streptogramin B:A ratios. The class given is cell-based.
Test [3] has as its system S. aureus BAA-1717 strain. Kind of test: MIC against the infecting strain of the thigh model. The note with it: Staphylococcus aureus, BAA1717.

For `CC[C@H]1OC(=O)[C@H](C)[C@@H](O[C@H]2C[C@@](C)(OC)[C@@H](O)[C@H](C)O2)[C@H](C)[C@@H](O[C@@H]2O[C@H](C)C[C@H](N(C)C)[C@H]2O)[C@](C)(O)C[C@@H](C)CN(C)[C@H](C)[C@@H](O)[C@]1(C)O` [AZI, Azithromycin, reference compound], the MIC (as a rule, the lowest concentration that inhibits growth of the organism) is 0.5 µg/mL with Neisseria gonorrhoeae (Neisseria gonorrhoeae, ATCC49226, strain ATCC 49226, read-out: MIC); 16 µg/mL with Neisseria gonorrhoeae (Neisseria gonorrhoeae, strain CDC 0167, read-out: MIC); 16 µg/mL in the test on Neisseria gonorrhoeae (Neisseria gonorrhoeae, strain CDC 0175, read-out: MIC); 4 µg/mL in the test with Neisseria gonorrhoeae (Neisseria gonorrhoeae, strain CDC 0177, read-out: MIC); above 16 µg/mL in the test on Neisseria gonorrhoeae (Neisseria gonorrhoeae, strain CDC 0181, read-out: MIC); 0.5 µg/mL with Neisseria gonorrhoeae (Neisseria gonorrhoeae, strain CDC 0194, read-out: MIC). Further, the MIC in the test with Neisseria gonorrhoeae (Neisseria gonorrhoeae, strain MMX 6921, read-out: MIC) is 16 µg/mL; in the test on Neisseria gonorrhoeae (Neisseria gonorrhoeae, strain WHO F, read-out: MIC), 0.12 µg/mL; in the test on Neisseria gonorrhoeae (Neisseria gonorrhoeae, strain WHO G, read-out: MIC), 0.25 µg/mL; in the test on Neisseria gonorrhoeae (Neisseria gonorrhoeae, strain WHO K, read-out: MIC), 0.5 µg/mL; in the test on Neisseria gonorrhoeae (Neisseria gonorrhoeae, strain WHO L, read-out: MIC), 0.5 µg/mL; with Neisseria gonorrhoeae (Neisseria gonorrhoeae, strain WHO M, read-out: MIC) it was 0.5 µg/mL. Further, the MIC with Neisseria gonorrhoeae (Neisseria gonorrhoeae, strain WHO N, read-out: MIC) is 0.25 µg/mL; with Neisseria gonorrhoeae (Neisseria gonorrhoeae, strain WHO O, read-out: MIC), 0.5 µg/mL; in the test with Neisseria gonorrhoeae (Neisseria gonorrhoeae, strain WHO P, read-out: MIC), 8 µg/mL; in the test on Neisseria gonorrhoeae (Neisseria gonorrhoeae, strain WHO U, read-out: MIC) it was 8 µg/mL; with Neisseria gonorrhoeae (Neisseria gonorrhoeae, strain WHO V, read-out: MIC), above 16 µg/mL; in the test with Neisseria gonorrhoeae (Neisseria gonorrhoeae, strain WHO W, read-out: MIC), 0.5 µg/mL. The MIC was 1 µg/mL with Neisseria gonorrhoeae (Neisseria gonorrhoeae, strain WHO X, read-out: MIC) and 1 µg/mL in the test with Neisseria gonorrhoeae (Neisseria gonorrhoeae, strain WHO Y, read-out: MIC).
Take `CC1=C\[C@@H](O)C[C@@H](F)Cc2nc(co2)C(=O)N2CCC[C@@H]2C(=O)O[C@H](C(C)C)[C@H](C)/C=C/C(=O)NC\C=C\1` [CBA1 0:100, flopristin]: the MIC range in the test with Mycoplasma genitalium fell in the range of 0.015 to 0.5 µg/mL. Further, the MIC came out at 1 µg/mL in the test on Staphylococcus aureus (strain ATCC 29213); 1 µg/mL in the test on Staphylococcus aureus (strain ATCC BAA 977); 0.5 µg/mL in the test with Staphylococcus aureus (strain ATCC BAA-976); 0.5 µg/mL in the test with Staphylococcus aureus (strain MMX 2336); 0.5 µg/mL with Staphylococcus aureus (strain MMX 3035); 0.25 µg/mL with Staphylococcus aureus (strain MMX 3037). For the same compound, the MIC with Staphylococcus aureus (strain MMX 3095) is 1 µg/mL; with Staphylococcus aureus (strain MMX 3098) it was 1 µg/mL; in the test with Staphylococcus aureus (strain MMX 3885) it was 0.5 µg/mL; in the test with Staphylococcus aureus (strain MMX 3983), 0.5 µg/mL; in the test on Staphylococcus aureus (strain MMX 4670), 0.25 µg/mL; in the test on Staphylococcus aureus (strain MMX 5787), 2 µg/mL. Further, the MIC turned out to be 2 µg/mL with Staphylococcus aureus (strain NRS 271); 1 µg/mL with Staphylococcus aureus (strain NRS 382); 1 µg/mL with Staphylococcus aureus (strain NRS 384); 0.12 µg/mL in the test with Neisseria gonorrhoeae (strain ATCC 49226); 0.03 µg/mL in the test on Neisseria gonorrhoeae (strain CDC 0167); 0.03 µg/mL with Neisseria gonorrhoeae (strain CDC 0175). The MIC in the test with Neisseria gonorrhoeae (strain CDC 0177) turned out to be 0.06 µg/mL; with Neisseria gonorrhoeae (strain CDC 0181), 0.12 µg/mL; in the test on Neisseria gonorrhoeae (strain CDC 0194) it was 0.06 µg/mL; in the test on Neisseria gonorrhoeae (strain MMX 6921), 0.12 µg/mL; in the test on Neisseria gonorrhoeae (strain WHO F), 0.015 µg/mL; in the test on Neisseria gonorrhoeae (strain WHO G) it was 0.12 µg/mL. In addition, the MIC with Neisseria gonorrhoeae (strain WHO K) stood at 0.25 µg/mL; in the test with Neisseria gonorrhoeae (strain WHO L), 0.12 µg/mL; with Neisseria gonorrhoeae (strain WHO M), 0.12 µg/mL; in the test on Neisseria gonorrhoeae (strain WHO N) it was 0.12 µg/mL; in the test on Neisseria gonorrhoeae (strain WHO O), 0.12 µg/mL; in the test with Neisseria gonorrhoeae (strain WHO P), 0.5 µg/mL. The MIC came out at 0.12 µg/mL in the test with Neisseria gonorrhoeae (strain WHO U); 0.25 µg/mL in the test with Neisseria gonorrhoeae (strain WHO V); 0.12 µg/mL in the test with Neisseria gonorrhoeae (strain WHO W); 0.12 µg/mL with Neisseria gonorrhoeae (strain WHO X); 0.12 µg/mL in the test on Neisseria gonorrhoeae (strain WHO Y); 2 µg/mL in the test on Streptococcus pneumoniae [2] (strain ATCC 49619). For the same compound, the minimum inhibitory concentration (MIC) in the test with Streptococcus pneumoniae [2] (strain ATCC 700677) came out at 8 µg/mL; in the test with Streptococcus pneumoniae [2] (strain MMX 3031), 4 µg/mL; with Streptococcus pneumoniae [2] (strain MMX 3033) it was 4 µg/mL; with Streptococcus pneumoniae [2] (strain MMX 4937), 2 µg/mL. Further, in the test on Streptococcus pneumoniae [1], the “Strains against which bactericidal (MBC divided by MIC ≤4)” value is on record as 5 out of the 5.
In the case of `CC[C@H]1NC(=O)[C@@H](NC(=O)c2ncccc2O)[C@@H](C)OC(=O)[C@H](c2ccccc2)NC(=O)[C@@H]2CC(=O)CCN2C(=O)[C@H](Cc2ccc(N(C)C)cc2)N(C)C(=O)[C@@H]2CCCN2C1=O` [CBA1 100:0, pristinamycin IA] ({Picolinoyl(3-OH)}-T[dAbu]P[NMePhe(4-NMe2)][Pip(4-oxo)][Phg]; ester 1-C), the MIC range in the test on Mycoplasma genitalium lay within 2 to 16 µg/mL. For the same compound, the minimal inhibitory concentration (MIC) is 8 µg/mL in the test with Staphylococcus aureus (strain ATCC 29213); 16 µg/mL with Staphylococcus aureus (strain ATCC BAA 977); 8 µg/mL in the test on Staphylococcus aureus (strain ATCC BAA-976); 8 µg/mL in the test on Staphylococcus aureus (strain MMX 2336); above 64 µg/mL with Staphylococcus aureus (strain MMX 3035); above 64 µg/mL in the test on Staphylococcus aureus (strain MMX 3037). Besides, the MIC was 8 µg/mL in the test on Staphylococcus aureus (strain MMX 3095); 8 µg/mL in the test on Staphylococcus aureus (strain MMX 3098); 8 µg/mL in the test with Staphylococcus aureus (strain MMX 3885); above 64 µg/mL in the test with Staphylococcus aureus (strain MMX 3983); above 64 µg/mL in the test with Staphylococcus aureus (strain MMX 4670); above 64 µg/mL with Staphylococcus aureus (strain MMX 5787). Also, the minimum inhibitory concentration (MIC) was 8 µg/mL in the test on Staphylococcus aureus (strain NRS 271); above 64 µg/mL in the test on Staphylococcus aureus (strain NRS 382); 8 µg/mL in the test with Staphylococcus aureus (strain NRS 384); above 64 µg/mL in the test with Neisseria gonorrhoeae (strain ATCC 49226); above 64 µg/mL with Neisseria gonorrhoeae (strain CDC 0167); above 64 µg/mL in the test on Neisseria gonorrhoeae (strain CDC 0175). Further, the MIC in the test with Neisseria gonorrhoeae (strain CDC 0177) is above 64 µg/mL; in the test with Neisseria gonorrhoeae (strain CDC 0181) it was above 64 µg/mL; in the test on Neisseria gonorrhoeae (strain CDC 0194) it was 32 µg/mL; with Neisseria gonorrhoeae (strain MMX 6921), above 64 µg/mL; in the test with Neisseria gonorrhoeae (strain WHO F), 32 µg/mL; with Neisseria gonorrhoeae (strain WHO G) it was above 64 µg/mL. The MIC in the test with Neisseria gonorrhoeae (strain WHO K) was above 64 µg/mL; in the test on Neisseria gonorrhoeae (strain WHO L), 64 µg/mL; in the test on Neisseria gonorrhoeae (strain WHO M) it was 64 µg/mL; in the test on Neisseria gonorrhoeae (strain WHO N) it was above 64 µg/mL; with Neisseria gonorrhoeae (strain WHO O), 64 µg/mL; in the test with Neisseria gonorrhoeae (strain WHO P), above 64 µg/mL. Also, the minimal inhibitory concentration (MIC) is above 64 µg/mL in the test with Neisseria gonorrhoeae (strain WHO U); above 64 µg/mL in the test with Neisseria gonorrhoeae (strain WHO V); 64 µg/mL in the test with Neisseria gonorrhoeae (strain WHO W); above 64 µg/mL in the test with Neisseria gonorrhoeae (strain WHO X); 32 µg/mL with Neisseria gonorrhoeae (strain WHO Y); 1 µg/mL in the test on Streptococcus pneumoniae [2] (strain ATCC 49619). The MIC in the test with Streptococcus pneumoniae [2] (strain ATCC 700677) stood at 32 µg/mL; in the test on Streptococcus pneumoniae [2] (strain MMX 3031), 0.5 µg/mL; in the test with Streptococcus pneumoniae [2] (strain MMX 3033) it was 2 µg/mL; in the test with Streptococcus pneumoniae [2] (strain MMX 4937), 1 µg/mL. The “Strains against which bactericidal (MBC divided by MIC ≤4)” value with Streptococcus pneumoniae [1] is 2 out of the 4.
`CC(=O)NC[C@H]1CN(c2ccc(N3CCOCC3)c(F)c2)C(=O)O1` [linezolid] had an MIC in test [3] of 2 µg/mL (≈ 5.93 µM).
On the same count and under the same terms, as for `CN[C@H](CC(C)C)C(=O)N[C@H]1C(=O)N[C@@H](CC(N)=O)C(=O)N[C@H]2C(=O)N[C@H]3C(=O)N[C@H](C(=O)N[C@H](C(=O)O)c4cc(O)cc(O)c4-c4cc3ccc4O)[C@H](O)c3ccc(c(Cl)c3)Oc3cc2cc(c3O[C@@H]2O[C@H](CO)[C@@H](O)[C@H](O)[C@H]2O[C@H]2C[C@](C)(N)[C@H](O)[C@H](C)O2)Oc2ccc(cc2Cl)[C@H]1O` [vancomycin], the figure is 1 µg/mL (≈ 0.69 µM).
